Data from ChEMBL document CHEMBL3885881, “DrugMatrix”.

Species: Rattus norvegicus
Assay: DrugMatrix - Regimen: Daily Repeat
Assay type: toxicity, organism-based, Sprague-Dawley
Parameters: regimen Daily Repeat, gender Male, age 6-8 weeks
Conditions: in vivo, po, route oral GAVAGE, vehicle 100 % WATER; for BASOPHIL / EOSINOPHIL / ERYTHROCYTE COUNT / HEMATOCRIT / HEMOGLOBIN / LEUKOCYTE COUNT / LYMPHOCYTE / MEAN CORPUSCULAR HEMOGLOBIN / MEAN CORPUSCULAR HEMOGLOBIN CONCENTRATION / MEAN CORPUSCULAR VOLUME / MONOCYTE / NEUTROPHIL / PLATELET COUNT: tissue Blood; for ALANINE AMINOTRANSFERASE / ALBUMIN / ALKALINE PHOSPHATASE / ASPARTATE AMINOTRANSFERASE / BLOOD UREA NITROGEN / CARBON DIOXIDE / CHLORIDE / CHOLESTEROL / CREATINE PHOSPHOKINASE / CREATININE / GLUCOSE / LACTATE DEHYDROGENASE / LIPASE / PHOSPHORUS / POTASSIUM / SODIUM / TOTAL BILIRUBIN / TOTAL PROTEIN / URIC ACID: tissue Plasma
[1] = 0 mg/kg, 96 h, dose level Control, time 4 day
[2] = 0 mg/kg, […], dose level Control, time 6 day
[3] = 0 mg/kg, […], dose level Control, time 14 day
[4] = 4000 mg/kg, 96 h, dose level High, time 4 day
[5] = 4000 mg/kg, […], dose level High, time 6 day
[6] = 4000 mg/kg, […], dose level High, time 14 day

CC(C)=O [ACETONE]
BASOPHIL [1]: 0.47% | EOSINOPHIL [1]: 0.58% | ERYTHROCYTE COUNT [1]: 6.84 x10E6/uL | HEMATOCRIT [1]: 44.27% | HEMOGLOBIN [1]: 14.08 G/DL | LEUKOCYTE COUNT [1]: 13.39 x10E3/uL | LYMPHOCYTE [1]: 83.57% | MEAN CORPUSCULAR HEMOGLOBIN [1]: 20.57 pg | MEAN CORPUSCULAR HEMOGLOBIN CONCENTRATION [1]: 31.77 G/DL | MEAN CORPUSCULAR VOLUME [1]: 64.68 fL | MONOCYTE [1]: 1.92% | NEUTROPHIL [1]: 12.95% | PLATELET COUNT [1]: 1533.67 x10E3/uL | ALANINE AMINOTRANSFERASE [1]: 28.17 u/L | ALBUMIN [1]: 3.82 G/DL | ALKALINE PHOSPHATASE [1]: 354.33 u/L | ASPARTATE AMINOTRANSFERASE [1]: 73.83 u/L | BLOOD UREA NITROGEN [1]: 16 mg/dL | CARBON DIOXIDE [1]: 27.17 mmol/L | CHLORIDE [1]: 104.83 MEQ/L | CHOLESTEROL [1]: 83.33 mg/dL | CREATINE PHOSPHOKINASE [1]: 288 u/L | CREATININE [1]: 0.33 mg/dL | GLUCOSE [1]: 181.33 mg/dL | LACTATE DEHYDROGENASE [1]: 173.17 u/L | LIPASE [1]: 17.67 u/L | PHOSPHORUS [1]: 11.5 mg/dL | POTASSIUM [1]: 6.8 MEQ/L | SODIUM [1]: 147 MEQ/L | TOTAL BILIRUBIN [1]: 0.35 mg/dL | TOTAL PROTEIN [1]: 6.35 G/DL | URIC ACID [1]: 1.55 mg/dL | BASOPHIL [2]: 0.33% | EOSINOPHIL [2]: 0.85% | ERYTHROCYTE COUNT [2]: 6.98 x10E6/uL | HEMATOCRIT [2]: 38.58% | HEMOGLOBIN [2]: 14.25 G/DL | LEUKOCYTE COUNT [2]: 11.01 x10E3/uL | LYMPHOCYTE [2]: 85.07% | MEAN CORPUSCULAR HEMOGLOBIN [2]: 20.47 pg | MEAN CORPUSCULAR HEMOGLOBIN CONCENTRATION [2]: 31.45 G/DL | MEAN CORPUSCULAR VOLUME [2]: 64.9 fL | MONOCYTE [2]: 1.9% | NEUTROPHIL [2]: 11.42% | PLATELET COUNT [2]: 1289.67 x10E3/uL | BASOPHIL [3]: 0.52% | EOSINOPHIL [3]: 0.55% | ERYTHROCYTE COUNT [3]: 7.72 x10E6/uL | HEMATOCRIT [3]: 51.87% | HEMOGLOBIN [3]: 15.32 G/DL | LEUKOCYTE COUNT [3]: 16.2 x10E3/uL | LYMPHOCYTE [3]: 85.13% | MEAN CORPUSCULAR HEMOGLOBIN [3]: 19.85 pg | MEAN CORPUSCULAR HEMOGLOBIN CONCENTRATION [3]: 29.52 G/DL | MEAN CORPUSCULAR VOLUME [3]: 67.17 fL | MONOCYTE [3]: 1.7% | NEUTROPHIL [3]: 11.6% | PLATELET COUNT [3]: 1104.17 x10E3/uL | ALANINE AMINOTRANSFERASE [2]: 28.17 u/L | ALBUMIN [2]: 3.78 G/DL | ALKALINE PHOSPHATASE [2]: 385.33 u/L | ASPARTATE AMINOTRANSFERASE [2]: 78 u/L | BLOOD UREA NITROGEN [2]: 16.83 mg/dL | CARBON DIOXIDE [2]: 26.67 mmol/L | CHLORIDE [2]: 106.83 MEQ/L | CHOLESTEROL [2]: 82.67 mg/dL | CREATINE PHOSPHOKINASE [2]: 225.5 u/L | CREATININE [2]: 0.27 mg/dL | GLUCOSE [2]: 179.5 mg/dL | LACTATE DEHYDROGENASE [2]: 98.33 u/L | LIPASE [2]: 14.67 u/L | PHOSPHORUS [2]: 12.28 mg/dL | POTASSIUM [2]: 7.03 MEQ/L | SODIUM [2]: 150.33 MEQ/L | TOTAL BILIRUBIN [2]: 0.38 mg/dL | TOTAL PROTEIN [2]: 6.45 G/DL | URIC ACID [2]: 1.6 mg/dL | ALANINE AMINOTRANSFERASE [3]: 37 u/L | ALBUMIN [3]: 4.13 G/DL | ALKALINE PHOSPHATASE [3]: 342 u/L | ASPARTATE AMINOTRANSFERASE [3]: 71 u/L | BLOOD UREA NITROGEN [3]: 16.5 mg/dL | CARBON DIOXIDE [3]: 28.17 mmol/L | CHLORIDE [3]: 104 MEQ/L | CHOLESTEROL [3]: 70.67 mg/dL | CREATINE PHOSPHOKINASE [3]: 287.67 u/L | CREATININE [3]: 0.38 mg/dL | GLUCOSE [3]: 150.17 mg/dL | LACTATE DEHYDROGENASE [3]: 81.33 u/L | LIPASE [3]: 16 u/L | PHOSPHORUS [3]: 11.32 mg/dL | POTASSIUM [3]: 6.22 MEQ/L | SODIUM [3]: 147.33 MEQ/L | TOTAL BILIRUBIN [3]: 0.43 mg/dL | TOTAL PROTEIN [3]: 6.55 G/DL | URIC ACID [3]: 1.38 mg/dL | BASOPHIL [4]: 0.37% | EOSINOPHIL [4]: 0.2% | ERYTHROCYTE COUNT [4]: 7.37 x10E6/uL | HEMATOCRIT [4]: 47.5% | HEMOGLOBIN [4]: 15.37 G/DL | LEUKOCYTE COUNT [4]: 10.01 x10E3/uL | LYMPHOCYTE [4]: 77.97% | MEAN CORPUSCULAR HEMOGLOBIN [4]: 20.83 pg | MEAN CORPUSCULAR HEMOGLOBIN CONCENTRATION [4]: 32.37 G/DL | MEAN CORPUSCULAR VOLUME [4]: 64.47 fL | MONOCYTE [4]: 2.73% | NEUTROPHIL [4]: 18.23% | PLATELET COUNT [4]: 1486.67 x10E3/uL | ALANINE AMINOTRANSFERASE [4]: 47 u/L | ALBUMIN [4]: 3.73 G/DL | ALKALINE PHOSPHATASE [4]: 277.67 u/L | ASPARTATE AMINOTRANSFERASE [4]: 87.33 u/L | BLOOD UREA NITROGEN [4]: 12.67 mg/dL | CARBON DIOXIDE [4]: 30.67 mmol/L | CHLORIDE [4]: 103.33 MEQ/L | CHOLESTEROL [4]: 117.33 mg/dL | CREATINE PHOSPHOKINASE [4]: 390.33 u/L | CREATININE [4]: 0.53 mg/dL | GLUCOSE [4]: 176.33 mg/dL | LACTATE DEHYDROGENASE [4]: 159 u/L | LIPASE [4]: 27 u/L | PHOSPHORUS [4]: 11 mg/dL | POTASSIUM [4]: 5.6 MEQ/L | SODIUM [4]: 149 MEQ/L | TOTAL BILIRUBIN [4]: 0.27 mg/dL | TOTAL PROTEIN [4]: 6.37 G/DL | URIC ACID [4]: 1.23 mg/dL | BASOPHIL [5]: 0.23% | EOSINOPHIL [5]: 0.27% | ERYTHROCYTE COUNT [5]: 7.31 x10E6/uL | HEMATOCRIT [5]: 47.27% | HEMOGLOBIN [5]: 14.77 G/DL | LEUKOCYTE COUNT [5]: 10.16 x10E3/uL | LYMPHOCYTE [5]: 86.07% | MEAN CORPUSCULAR HEMOGLOBIN [5]: 20.17 pg | MEAN CORPUSCULAR HEMOGLOBIN CONCENTRATION [5]: 31.23 G/DL | MEAN CORPUSCULAR VOLUME [5]: 64.67 fL | MONOCYTE [5]: 2.77% | NEUTROPHIL [5]: 9.93% | PLATELET COUNT [5]: 1168.67 x10E3/uL | BASOPHIL [6]: 0.3% | EOSINOPHIL [6]: 0.38% | ERYTHROCYTE COUNT [6]: 8.11 x10E6/uL | HEMATOCRIT [6]: 55.22% | HEMOGLOBIN [6]: 16.28 G/DL | LEUKOCYTE COUNT [6]: 7.38 x10E3/uL | LYMPHOCYTE [6]: 78.4% | MEAN CORPUSCULAR HEMOGLOBIN [6]: 20.06 pg | MEAN CORPUSCULAR HEMOGLOBIN CONCENTRATION [6]: 29.48 G/DL | MEAN CORPUSCULAR VOLUME [6]: 68.1 fL | MONOCYTE [6]: 2.1% | NEUTROPHIL [6]: 18.48% | PLATELET COUNT [6]: 1123.2 x10E3/uL | ALANINE AMINOTRANSFERASE [5]: 59.33 u/L | ALBUMIN [5]: 3.83 G/DL | ALKALINE PHOSPHATASE [5]: 274 u/L | ASPARTATE AMINOTRANSFERASE [5]: 91.33 u/L | BLOOD UREA NITROGEN [5]: 17.33 mg/dL | CARBON DIOXIDE [5]: 27.67 mmol/L | CHLORIDE [5]: 107 MEQ/L | CHOLESTEROL [5]: 112 mg/dL | CREATINE PHOSPHOKINASE [5]: 187.67 u/L | CREATININE [5]: 0.37 mg/dL | GLUCOSE [5]: 172.33 mg/dL | LACTATE DEHYDROGENASE [5]: 78 u/L | LIPASE [5]: 11.33 u/L | PHOSPHORUS [5]: 12.07 mg/dL | POTASSIUM [5]: 6.83 MEQ/L | SODIUM [5]: 152 MEQ/L | TOTAL BILIRUBIN [5]: 0.33 mg/dL | TOTAL PROTEIN [5]: 6.57 G/DL | URIC ACID [5]: 1.5 mg/dL | ALANINE AMINOTRANSFERASE [6]: 84.2 u/L | ALBUMIN [6]: 4.12 G/DL | ALKALINE PHOSPHATASE [6]: 230.4 u/L | ASPARTATE AMINOTRANSFERASE [6]: 95.6 u/L | BLOOD UREA NITROGEN [6]: 15.2 mg/dL | CARBON DIOXIDE [6]: 30.6 mmol/L | CHLORIDE [6]: 104 MEQ/L | CHOLESTEROL [6]: 129.2 mg/dL | CREATINE PHOSPHOKINASE [6]: 256 u/L | CREATININE [6]: 0.54 mg/dL | GLUCOSE [6]: 144.8 mg/dL | LACTATE DEHYDROGENASE [6]: 59 u/L | LIPASE [6]: 22.2 u/L | PHOSPHORUS [6]: 11.14 mg/dL | POTASSIUM [6]: 6.2 MEQ/L | SODIUM [6]: 149.8 MEQ/L | TOTAL BILIRUBIN [6]: 0.42 mg/dL | TOTAL PROTEIN [6]: 6.66 G/DL | URIC ACID [6]: 1.5 mg/dL
